From patent US20170022171A1, “2,5-DISUBSTITUTED CYCLOPENTANECARBOXYLIC ACIDS AND THEIR USE” (Bayer Pharma Aktiengesellschaft, priority 2014, published 2017)

Assays:
Format in all cases: biochemical
mouse MMP-9 = molecular target: T1, mouse MMP-9 (Mus musculus, UniProt P41245); assay: In vitro mouse MMP-9 inhibition test
T1 construct: purchased R&D Systems 909-MP
Source text: (§1) The MMP-mediated amidolytic cleavage of a suitable peptide substrate leads to an increase in fluorescent light here too. The signal intensity of the fluorescent light is directly proportional to the enzyme activity. The active concentration of a test compound at which half the enzyme is inhibited (50% signal intensity of the fluorescent light) is reported as the IC50 value.
(§2) Recombinant mouse MMP-9 (from R&D Systems, 909-MP) is chemically activated in accordance with the manufacturer's instructions using APMA. 1 μl of the test compound to be analysed (as a solution in DMSO, suitable concentrations, for example, 1 nM to 30 μM) is pipetted into 24 μl of activated enzyme (final concentration, for example, 0.1 nM) in reaction buffer (50 mM Tris/HCl pH 7.5, 10 mM CaCl2, 150 mM NaCl, 0.05% Brij®-35) in a white 384-hole microtiter plate (MTP). The enzymatic reaction is started by adding the intramolecularly quenched Mca-Pro-Leu-Gly-Leu-Dpa(Dnp)-Ala-Arg-NH2 substrate (final concentration, for example, 5 μM; R&D Systems, ES-001), so as to result in a total test volume of 50 The course of the MMP-9 reaction is measured by measuring the fluorescence intensity (excitation 320 nm, emission 410 nm) over a suitable period of time (for example over 120 min at a temperature of 32° C.).

mouse MMP-8 = molecular target: T2, mouse MMP-8 (Mus musculus, UniProt O70138); assay: In vitro mouse MMP-8 inhibition test
T2 construct: purchased R&D Systems 2904-MP
Source text: as §1
(§3) Recombinant mouse MMP-8 (from R&D Systems, 2904-MP) is chemically activated in accordance with the manufacturer's instructions using APMA. 1 μl of the test compound to be analysed (as a solution in DMSO, suitable concentrations, for example, 1 nM to 30 μM) is pipetted into 24 μl of activated enzyme (final concentration, for example, 2 nM) in reaction buffer (50 mM Tris/HCl pH 7.5, 10 mM CaCl2, 150 mM NaCl, 0.05% Brij®-35) in a white 384-hole microtiter plate (MTP). The enzymatic reaction is started by adding the intramolecularly quenched Mca-Lys-Pro-Leu-Gly-Leu-Dpa(Dnp)-Ala-Arg-NH2 substrate (final concentration, for example, 5 μM; R&D Systems, ES-010), so as to result in a total test volume of 50 μl. The course of the MMP-8 reaction is measured by measuring the fluorescence intensity (excitation 320 nm, emission 410 nm) over a suitable period of time (for example over 120 min at a temperature of 32° C.).

mouse MMP-7 = molecular target: T3, mouse MMP-7 (Mus musculus, UniProt Q10738); assay: In vitro mouse MMP-7 inhibition test
T3 construct: purchased R&D Systems 2967-MP
T3 sequence (Q10738 95-264): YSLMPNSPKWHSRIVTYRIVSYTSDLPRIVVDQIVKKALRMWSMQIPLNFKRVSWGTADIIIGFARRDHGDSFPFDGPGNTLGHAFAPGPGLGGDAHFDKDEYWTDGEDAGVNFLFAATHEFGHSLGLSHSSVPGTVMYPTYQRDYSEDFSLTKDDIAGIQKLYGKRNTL
Source text: as §1
as §3, with “mouse MMP-7” for “mouse MMP-8”, “Systems, 2967-MP)” for “Systems, 2904-MP)”, “example, 0.5” for “example, 2”, “the MMP-7” for “the MMP-8”

mouse MMP-12 = molecular target: T4, mouse MMP-12 (Mus musculus, UniProt P34960); assay: In vitro mouse MMP-12 inhibition test (standard or high-sensitivity)
T4 construct: purchased R&D Systems 3467-MP
Source text: as §1
Recombinant mouse MMP-12 (from R&D Systems, 3467-MP) is autocatalytically activated in accordance with the manufacturer's instructions. 1 μl of the test compound to be analysed (as a solution in DMSO, suitable concentrations, for example, 1 nM to 30 μM) is pipetted into 24 μl of activated enzyme (final concentration, for example, 1 nM) in reaction buffer (50 mM Tris/HCl pH 7.5, 10 mM CaCl2, 150 mM NaCl, 0.05% Brij®-35) in a white 384-hole microtiter plate (MTP). The enzymatic reaction is started by adding the intramolecularly quenched Mca-Lys-Pro-Leu-Gly-Leu-Dpa(Dnp)-Ala-Arg-NH2 substrate (final concentration, for example, 5 μM; R&D Systems, ES-010), so as to result in a total test volume of 50 The course of the MMP-12 reaction is measured by measuring the fluorescence intensity (excitation 320 nm, emission 410 nm) over a suitable period of time (for example over 120 min at a temperature of 32° C.).
In this case, an enzyme concentration ten times lower is used (final concentration, for example, 0.1 nM) in order to achieve an elevated test sensitivity. The incubation period chosen for the test is correspondingly longer (for example 16 hours).

mouse MMP-2 = molecular target: T5, mouse MMP-2 (Mus musculus, UniProt P33434); assay: In vitro mouse MMP-2 inhibition test
T5 construct: purchased R&D Systems 924-MP
Source text: as §1
as §2, with “mouse MMP-2” for “mouse MMP-9”, “Systems, 924-MP)” for “Systems, 909-MP)”, “example, 10” for “example, 5”, “the MMP-2” for “the MMP-9”

T4 sequence (P34960 110-473): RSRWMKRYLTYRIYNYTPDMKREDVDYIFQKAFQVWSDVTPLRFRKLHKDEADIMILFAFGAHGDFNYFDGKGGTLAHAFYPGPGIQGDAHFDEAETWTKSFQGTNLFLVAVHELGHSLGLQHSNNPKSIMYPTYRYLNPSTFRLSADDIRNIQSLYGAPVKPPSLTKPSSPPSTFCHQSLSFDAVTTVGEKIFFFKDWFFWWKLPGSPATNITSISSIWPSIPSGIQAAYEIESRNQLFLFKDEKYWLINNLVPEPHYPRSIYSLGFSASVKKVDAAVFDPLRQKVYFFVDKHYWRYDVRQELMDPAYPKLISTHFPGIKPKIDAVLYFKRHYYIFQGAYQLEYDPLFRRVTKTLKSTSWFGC
T1 sequence (P41245 108-730): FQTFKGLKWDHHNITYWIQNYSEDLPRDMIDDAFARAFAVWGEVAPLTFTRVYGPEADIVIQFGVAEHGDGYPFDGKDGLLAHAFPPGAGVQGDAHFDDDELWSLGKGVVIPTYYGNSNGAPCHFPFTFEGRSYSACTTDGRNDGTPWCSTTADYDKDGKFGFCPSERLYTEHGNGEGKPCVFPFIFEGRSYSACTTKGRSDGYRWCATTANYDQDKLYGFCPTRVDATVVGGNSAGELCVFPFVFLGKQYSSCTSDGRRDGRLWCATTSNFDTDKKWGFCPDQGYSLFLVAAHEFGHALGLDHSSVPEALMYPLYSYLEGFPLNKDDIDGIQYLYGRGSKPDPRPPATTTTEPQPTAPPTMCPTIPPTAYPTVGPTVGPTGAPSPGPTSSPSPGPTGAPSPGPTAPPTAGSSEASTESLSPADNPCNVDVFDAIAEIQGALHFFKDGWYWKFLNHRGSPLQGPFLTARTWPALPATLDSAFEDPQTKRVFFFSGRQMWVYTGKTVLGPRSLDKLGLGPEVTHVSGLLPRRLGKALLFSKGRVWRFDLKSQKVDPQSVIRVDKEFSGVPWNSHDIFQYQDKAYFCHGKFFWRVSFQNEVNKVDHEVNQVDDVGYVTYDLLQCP
T2 sequence (O70138 101-465): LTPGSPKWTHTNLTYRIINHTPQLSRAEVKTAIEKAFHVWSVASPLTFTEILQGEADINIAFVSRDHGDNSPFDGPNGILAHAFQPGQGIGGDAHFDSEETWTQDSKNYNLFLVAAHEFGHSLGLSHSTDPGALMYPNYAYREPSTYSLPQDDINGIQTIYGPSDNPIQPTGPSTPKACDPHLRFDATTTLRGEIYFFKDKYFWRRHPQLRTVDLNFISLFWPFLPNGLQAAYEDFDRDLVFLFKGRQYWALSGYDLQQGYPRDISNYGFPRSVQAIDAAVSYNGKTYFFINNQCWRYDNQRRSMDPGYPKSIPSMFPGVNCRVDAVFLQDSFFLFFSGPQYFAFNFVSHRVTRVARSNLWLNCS
T5 sequence (P33434 110-662): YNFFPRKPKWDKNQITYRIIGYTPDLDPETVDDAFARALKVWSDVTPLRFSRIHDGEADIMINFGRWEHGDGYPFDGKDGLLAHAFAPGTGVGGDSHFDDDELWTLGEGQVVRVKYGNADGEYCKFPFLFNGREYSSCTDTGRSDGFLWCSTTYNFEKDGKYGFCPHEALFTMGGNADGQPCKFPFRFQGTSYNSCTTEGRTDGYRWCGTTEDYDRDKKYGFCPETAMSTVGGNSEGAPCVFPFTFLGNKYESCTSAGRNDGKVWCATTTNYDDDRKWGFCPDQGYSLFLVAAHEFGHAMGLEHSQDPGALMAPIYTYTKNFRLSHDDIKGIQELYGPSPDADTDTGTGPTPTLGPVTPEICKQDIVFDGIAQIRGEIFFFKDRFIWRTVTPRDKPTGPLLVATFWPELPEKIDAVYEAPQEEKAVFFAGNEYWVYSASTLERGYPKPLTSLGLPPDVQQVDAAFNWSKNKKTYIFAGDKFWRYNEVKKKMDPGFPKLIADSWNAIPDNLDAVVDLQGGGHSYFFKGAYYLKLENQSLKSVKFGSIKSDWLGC

Row | IC50 (mouse MMP-9) [nM] | IC50 (mouse MMP-8) [nM] | IC50 (mouse MMP-7) [nM] | IC50 (mouse MMP-12) [nM] | IC50 (mouse MMP-2) [nM] | Compound
1 | 550 | 270 | 28 | 2.3 | 370 | Cc1ccc2nnn(C[C@@H]3CC[C@H](C(=O)c4ccc(OCc5cccc(Cl)c5)cc4)[C@H]3C(=O)O)c(=O)c2c1 (racemic) [Example 103, (+/−)-(1RS,2RS,5SR)-2-{4-[(3-Chlorobenzyl)oxy]benzoyl}-5-[(6-methyl-4-oxo-1,2,3-benzotriazin-3(4H)-yl)methyl]cyclopentanecarboxylic acid]
2 | 400 | 120 | 76 | 1.1 | 490 | Cc1ccc2nnn(C[C@H]3CC[C@@H](C(=O)c4ccc(OCc5cccc(C(F)(F)F)c5)cc4)[C@@H]3C(=O)O)c(=O)c2c1 (single isomer, unassigned) [Example 101, (+)-(1RS,2SR,5RS)-2-[(6-Methyl-4-oxo-1,2,3-benzotriazin-3(4H)-yl)methyl]-5-(4-{[3-(trifluoromethyl)benzyl]oxy}benzoyl)cyclopentanecarboxylic acid]
3 | 880 | 120 | 100 | 4 | 420 | CCCCCCOc1ccc(C(=O)[C@@H]2CC[C@H](Cn3nnc4ccc(C)cc4c3=O)[C@H]2C(=O)O)cc1 (single isomer, unassigned) [Example 121, (+)-(1RS,2RS,5SR)-2-[4-(Hexyloxy)benzoyl]-5-[(6-methyl-4-oxo-1,2,3-benzotriazin-3(4H)-yl)methyl]cyclopentanecarboxylic acid]
4 | 910 | 450 | 250 | 3 | 1300 | Cc1ccc2nnn(C[C@@H]3CC[C@H](C(=O)c4ccc(OCc5cccc(OC(F)(F)F)c5)cc4)[C@H]3C(=O)O)c(=O)c2c1 (racemic) [Example 109, (+/−)-(1RS,2SR,5RS)-2-[(6-Methyl-4-oxo-1,2,3-benzotriazin-3(4H)-yl)methyl]-5-(4-{[3-(trifluoromethoxy)benzyl]oxy}benzoyl)cyclopentanecarboxylic acid]

Further lines, the compound ahead of its results:

Row | Compound | IC50 (mouse MMP-9) [nM] | IC50 (mouse MMP-8) [nM] | IC50 (mouse MMP-7) [nM] | IC50 (mouse MMP-12) [nM] | IC50 (mouse MMP-2) [nM]
5 | Cc1ccc2nnn(C[C@H]3CC[C@@H](C(=O)c4ccc(OCc5ccccc5)cc4)[C@@H]3C(=O)O)c(=O)c2c1 (single isomer, unassigned) [Example 92, (+)-(1RS,2RS,5SR)-2-[4-(Benzyloxy)benzoyl]-5-[(6-methyl-4-oxo-1,2,3-benzotriazin-3(4H)-yl)methyl]cyclopentanecarboxylic acid] | 37 | 16 | 18 | 0.42 | 57
6 | O=C(O)[C@@H]1[C@@H](Cn2nnc3ccc(C(F)(F)F)cc3c2=O)CC[C@H]1C(=O)c1ccc(SCc2ccccc2)cc1 (single isomer, unassigned) [Example 75, (+)-(1RS,2RS,5SR)-2-[4-(Benzylsulphanyl)benzoyl]-5-{[4-oxo-6-(trifluoromethyl)-1,2,3-benzotriazin-3(4H)-yl]methyl}cyclopentanecarboxylic acid] | 2700 | 410 | 120 | 2.3 | 4200
7 | Cc1ccc2nnn(C[C@@H]3CC[C@H](C(=O)c4ccc(OCc5ccccc5)cc4)[C@H]3C(=O)O)c(=O)c2c1 (racemic) [Example 91, (+/−)-(1RS,2RS,5SR)-2-[4-(Benzyloxy)benzoyl]-5-[(6-methyl-4-oxo-1,2,3-benzotriazin-3(4H)-yl)methyl]cyclopentanecarboxylic acid] | 72 | 26 | 22 | 0.86 | 95
8 | O=C(O)[C@H]1[C@H](Cn2nnc3ccc(C(F)(F)F)cc3c2=O)CC[C@@H]1C(=O)c1ccc(OCCCc2ccccc2)cc1 (racemic) [Example 39, (+/−)-(1RS,2SR,5RS)-2-{[4-Oxo-6-(trifluoromethyl)-1,2,3-benzotriazin-3(4H)-yl]methyl}-5-[4-(3-phenylpropoxy)benzoyl]cyclopentanecarboxylic acid] | > 40000 | 640 | 230 | 11 | 3800
9 | O=C(O)[C@@H]1[C@@H](Cn2nnc3ccc(C(F)(F)F)cc3c2=O)CC[C@H]1C(=O)c1ccc(SCc2ccc(Cl)c(Cl)c2)cc1 (single isomer, unassigned) [Example 80, (+)-(1RS,2RS,5SR)-2-{4-[(3,4-Dichlorobenzyl)sulphanyl]benzoyl}-5-{[4-oxo-6-(trifluoromethyl)-1,2,3-benzotriazin-3(4H)-yl]methyl}cyclopentanecarboxylic acid] | > 40000 | 130 | 130 | 4.3 | 1500
10 | O=C(O)[C@H]1[C@H](Cn2nnc3ccccc3c2=O)CC[C@@H]1C(=O)c1ccc(OCCC2CCCCC2)cc1 (racemic) [Example 5, (+/−)-(1RS,2RS,5SR)-2-[4-(2-Cyclohexylethoxy)benzoyl]-5-[(4-oxo-1,2,3-benzotriazin-3(4H)-yl)methyl]cyclopentanecarboxylic acid] | 930 | 360 | 160 | 1.8 | 270
